Data from ChEMBL document CHEMBL4831524, “AZD0284, a Potent, Selective, and Orally Bioavailable Inverse Agonist of Retinoic Acid Receptor-Related Orphan Receptor C2” (J Med Chem, 2021).
Each block holds one compound with its values, some of them ahead of it.

How the values were obtained:
[1] = in vitro; conditions: human, liver microsomes
[2] = physchem; conditions: 1-octanol/phosphate buffered saline, pH 7.4
[3] = molecular target: Voltage-gated inwardly rectifying potassium channel KCNH2 (Homo sapiens, UniProt Q12809)
[4] = Apparent permeability across apical to basolateral side in human Caco-2 cells; type: ADME, cell-based
[5] = Intrinsic permeability of compound from apical to basolateral side in human Caco2 cells; type: ADME, cell-based; conditions: Caco-2
[6] = Volume of distribution at steady state in Beagle dog at 1 mg/kg, iv; type: ADME, organism-based, Canis lupus familiaris; conditions: in vivo, read-out: Vdss
[7] = species: Mus musculus; experiment: animal or person; conditions: C57BL/6NCrl, sc, 168 h, read-out: INH
[8] = Fraction absorbed in Han Wistar rat at 50 mg/kg, po using crystaline form of sample; type: ADME, organism-based; conditions: in vivo, read-out: Fabs
[9] = Half life in C57BL/6 mouse at 1 mg/kg, iv; type: ADME, organism-based; conditions: in vivo
[10] = Fraction absorbed in Han Wistar rat at 50 mg/kg, po using EtOH form of sample; type: ADME, organism-based; conditions: in vivo, read-out: Fabs
[11] = Fraction absorbed in C57BL/6 mouse at 2 mg/kg, po using amorphous form of sample; type: ADME, organism-based; conditions: in vivo, read-out: Fabs
[12] = Total plasma clearance in Beagle dog at 1 mg/kg, iv; type: ADME, organism-based, Canis lupus familiaris
[13] = Fraction absorbed in Han Wistar rat at 1 mg/kg, po using amorphous form of sample; type: ADME, organism-based; conditions: in vivo, read-out: Fabs
[14] = Renal clearance in Han Wistar rat at 0.5 mg/kg, iv; type: ADME, organism-based, Kidney; conditions: in vivo
[15] = Plasma protein binding in mouse assessed as unbound fraction by equilibrium dialysis; type: ADME, cell-free
[16] = Half life in Beagle dog at 1 mg/kg, iv; type: ADME, organism-based, Canis lupus familiaris; conditions: in vivo
[17] = Metabolic stability in dog hepatocytes assessed as intrinsic clearance measured per 10^6 cells; type: ADME, cell-based, Canis lupus familiaris, Hepatocyte; conditions: read-out: CLH
[18] = Oral bioavailability in Beagle dog at 10 mg/kg using crystaline form of sample; type: ADME, organism-based, Canis lupus familiaris; conditions: in vivo
[19] = Total plasma clearance in C57BL/6 mouse at 1 mg/kg, iv; type: ADME, organism-based
[20] = species: Mus musculus; experiment: animal or person; conditions: C57BL/6NCrl, sc, 168 h, read-out: INH; remark: listed apart in the source
[21] = Biliary clearance in Han Wistar rat at 1 mg/kg, iv; type: ADME, organism-based, Bile; conditions: in vivo
[22] = Oral bioavailability in C57BL/6 mouse at 2 mg/kg using amorphous form of sample; type: ADME, organism-based; conditions: in vivo
[23] = Volume of distribution at steady state in C57BL/6 mouse at 1 mg/kg, iv; type: ADME, organism-based; conditions: in vivo, read-out: Vdss
[24] = Oral bioavailability in Beagle dog at 3 mg/kg using amorphous form of sample; type: ADME, organism-based, Canis lupus familiaris; conditions: in vivo
[25] = Plasma protein binding in dog assessed as unbound fraction by equilibrium dialysis; type: ADME, cell-free, Canis lupus familiaris
[26] = Total plasma clearance in Han Wistar rat at 1 mg/kg, iv; type: ADME, organism-based
[27] = test system: MDR1; experiment: Apparent permeability across apical to basolateral side in dog MDCK-MDR1 cells; type: ADME, cell-based, Canis lupus familiaris
[28] = Apparent permeability across basolateral to apical side in human Caco-2 cells; type: ADME, cell-based
[29] = Oral bioavailability in Han Wistar rat at 50 mg/kg using crystaline form of sample; type: ADME, organism-based; conditions: in vivo
[30] = Oral bioavailability in Han Wistar rat at 1 mg/kg using amorphous form of sample; type: ADME, organism-based; conditions: in vivo
[31] = Half life in Han Wistar rat at 0.5 mg/kg, iv; type: ADME, organism-based; conditions: in vivo
[32] = Fraction absorbed in Beagle dog at 10 mg/kg, po using crystaline form of sample; type: ADME, organism-based, Canis lupus familiaris; conditions: in vivo, read-out: Fabs
[33] = Plasma protein binding in rat assessed as unbound fraction by equilibrium dialysis; type: ADME, cell-free
[34] = Metabolic stability in mouse hepatocytes assessed as intrinsic clearance measured per 10^6 cells; type: ADME, cell-based, Hepatocyte; conditions: read-out: CLH
[35] = Volume of distribution at steady state in Han Wistar rat at 0.5 mg/kg, iv; type: ADME, organism-based; conditions: in vivo, read-out: Vdss
[36] = test system: MDR1; experiment: Apparent permeability across basolateral to apical side in dog MDCK-MDR1 cells; type: ADME, cell-based, Canis lupus familiaris
[37] = Fraction absorbed in Beagle dog at 3 mg/kg, po using amorphous form of sample; type: ADME, organism-based, Canis lupus familiaris; conditions: in vivo, read-out: Fabs
[38] = Oral bioavailability in Han Wistar rat at 50 mg/kg using EtOH form of sample; type: ADME, organism-based; conditions: in vivo
[39] = in vivo; conditions: Han Wistar, rat, po, 1 mg/kg
[40] = in vitro; conditions: rat, hepatocytes
[41] = rat, in vivo, po, 1 mg/kg
[42] = in vivo; conditions: Han Wistar, rat, po, 1 mg/kg; remark: listed apart in the source
[43] = in vitro; conditions: human, hepatocytes
[44] = in vivo; conditions: Han Wistar, rat, po, 1 mg/kg; remark: listed apart in the source
[45] = cells; conditions: Homo sapiens, Th17, 96 h

Chain of Voltage-gated inwardly rectifying potassium channel KCNH2 (Q12809 whole entry): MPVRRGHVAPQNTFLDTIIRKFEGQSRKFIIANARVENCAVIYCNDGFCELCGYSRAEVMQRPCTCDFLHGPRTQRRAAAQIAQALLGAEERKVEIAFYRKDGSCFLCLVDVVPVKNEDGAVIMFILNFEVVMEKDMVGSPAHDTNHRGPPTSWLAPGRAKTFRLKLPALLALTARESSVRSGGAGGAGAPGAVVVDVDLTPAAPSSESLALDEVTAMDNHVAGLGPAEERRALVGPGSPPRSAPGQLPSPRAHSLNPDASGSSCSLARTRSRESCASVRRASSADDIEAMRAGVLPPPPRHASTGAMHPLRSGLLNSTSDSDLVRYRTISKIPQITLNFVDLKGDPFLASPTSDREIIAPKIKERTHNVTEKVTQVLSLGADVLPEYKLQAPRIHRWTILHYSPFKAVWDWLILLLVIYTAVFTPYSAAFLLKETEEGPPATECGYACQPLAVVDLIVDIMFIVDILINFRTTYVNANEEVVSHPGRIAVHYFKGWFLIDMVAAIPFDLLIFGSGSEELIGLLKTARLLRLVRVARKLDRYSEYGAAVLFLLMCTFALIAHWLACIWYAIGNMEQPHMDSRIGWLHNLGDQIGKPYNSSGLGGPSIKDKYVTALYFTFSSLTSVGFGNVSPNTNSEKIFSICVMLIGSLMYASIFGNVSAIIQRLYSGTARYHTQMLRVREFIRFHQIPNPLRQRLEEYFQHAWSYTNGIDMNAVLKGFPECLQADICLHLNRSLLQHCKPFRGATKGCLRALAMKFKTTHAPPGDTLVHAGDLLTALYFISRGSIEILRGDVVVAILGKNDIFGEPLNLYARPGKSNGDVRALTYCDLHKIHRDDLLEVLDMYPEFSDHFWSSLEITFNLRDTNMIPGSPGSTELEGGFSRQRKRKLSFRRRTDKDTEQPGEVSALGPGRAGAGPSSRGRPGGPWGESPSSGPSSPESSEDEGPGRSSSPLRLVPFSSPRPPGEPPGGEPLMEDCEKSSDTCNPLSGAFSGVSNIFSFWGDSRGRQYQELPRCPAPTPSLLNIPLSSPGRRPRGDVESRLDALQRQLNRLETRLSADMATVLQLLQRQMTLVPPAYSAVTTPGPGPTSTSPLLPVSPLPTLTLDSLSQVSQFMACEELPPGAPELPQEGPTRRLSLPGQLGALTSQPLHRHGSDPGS

microsomal CLint [1]: < 3 µL/min/mg
logD [2]: 2.6
Compound: CCS(=O)(=O)c1ccc2c(c1)CN(C(=O)C1CCO1)C2C(=O)Nc1ccc(C(O)(C(F)(F)F)C(F)(F)F)cc1 (stereo unspecified)

microsomal CLint [1]: < 3 µL/min/mg
logD [2]: 2.9
Compound: CCS(=O)(=O)c1ccc(C(NC(=O)OC)C(=O)Nc2ccc(C(O)(C(F)(F)F)C(F)(F)F)cc2)nc1 (stereo unspecified)
IC50 [3]: 9.3 µM

microsomal CLint [1]: 16 µL/min/mg
Papp A→B [4]: 2.5 ×10⁻⁶ cm/s
Pm [5]: 11
logD [2]: 3.1
Compound: CCS(=O)(=O)c1ccc(C(NC(=O)Cc2nccs2)C(=O)Nc2ccc(C(O)(C(F)(F)F)C(F)(F)F)cc2)nc1 (stereo unspecified)
IC50 [3]: 5.5 µM

microsomal CLint [1]: < 3 µL/min/mg
logD [2]: 3.4
Compound: CC(=O)N1Cc2cc(S(=O)(=O)CC3CC3)ccc2C1C(=O)Nc1ccc(C(O)(C(F)(F)F)C(F)(F)F)cc1 (stereo unspecified)

microsomal CLint [1]: < 3 µL/min/mg
logD [2]: 3.1
Compound: CCS(=O)(=O)c1ccc([C@H](CC(=O)NC)C(=O)Nc2ccc(C(O)(C(F)(F)F)C(F)(F)F)cc2)cc1
IC50 [3]: > 40 µM

microsomal CLint [1]: < 3 µL/min/mg
logD [2]: 2.3
Compound: CS(=O)(=O)c1ccc2c(c1)CN(C(=O)CCC#N)C2C(=O)Nc1ccc(C(O)(C(F)(F)F)C(F)(F)F)cc1 (stereo unspecified)

microsomal CLint [1]: < 3 µL/min/mg
logD [2]: 1.1
Compound: NCCC(=O)N1Cc2cc(S(=O)(=O)CC3CC3)ccc2C1C(=O)Nc1ccc(C(O)(C(F)(F)F)C(F)(F)F)cc1 (stereo unspecified)

microsomal CLint [1]: 6.8 µL/min/mg
logD [2]: 2.7
Compound: CNS(=O)(=O)c1ccc2c(c1)CN(C=O)C2C(=O)Nc1ccc(C(O)(C(F)(F)F)C(F)(F)F)cc1 (stereo unspecified)

microsomal CLint [1]: < 3 µL/min/mg
logD [2]: 2.9
Compound: COC(=O)N1Cc2cc(S(C)(=O)=O)ccc2C1C(=O)Nc1ccc(C(O)(C(F)(F)F)C(F)(F)F)cc1 (stereo unspecified)

microsomal CLint [1]: 7.9 µL/min/mg
logD [2]: 3.1
Compound: CC(=O)N1Cc2cc(S(=O)(=O)CC3(F)CC3)ccc2C1C(=O)Nc1ccc(C(O)(C(F)(F)F)C(F)(F)F)cc1 (stereo unspecified)

microsomal CLint [1]: 11 µL/min/mg
logD [2]: 3.2
Compound: CC(=O)N1Cc2cc(S(=O)(=O)NC3CC3)ccc2C1C(=O)Nc1ccc(C(O)(C(F)(F)F)C(F)(F)F)cc1 (stereo unspecified)

Vd [6]: 1.9 L/kg
Fa [8]: 6%
half-life [9]: 2.7 h
microsomal CLint [1]: < 3 µL/min/mg
Fa [10]: 42%
Fa [11]: 71%
clearance [12]: 1.9 mL/min/kg
Fa [13]: 41%
CL renal [14]: 2.9 mL/min/kg
fraction unbound [15]: 0.21
half-life [16]: 16.6 h
hepatocyte CLint [17]: < 1 µL/min/1e6 cells
bioavailability [18]: 50%
clearance [19]: 10.5 mL/min/kg
CL [21]: 0.4 mL/min/kg
bioavailability [22]: 67%
Vd [23]: 1.3 L/kg
bioavailability [24]: 97%
fraction unbound [25]: 0.12
clearance [26]: 12.4 mL/min/kg
Papp A→B [27]: 0.9 ×10⁻⁶ cm/s
Papp B→A [28]: 16 ×10⁻⁶ cm/s
bioavailability [29]: 5%
bioavailability [30]: 34%
half-life [31]: 3.3 h
Fa [32]: 52%
fraction unbound [33]: 0.23
hepatocyte CLint [34]: 2.3 µL/min/1e6 cells
Vd [35]: 2.5 L/kg
logD [2]: 2.4
Papp B→A [36]: 16 ×10⁻⁶ cm/s
Fa [37]: 99%
bioavailability [38]: 35%
Compound: CC(=O)N1Cc2cc(S(C)(=O)=O)ccc2[C@@H]1C(=O)Nc1ccc(C(O)(C(F)(F)F)C(F)(F)F)cc1
inhibition in vivo at 15 mg/kg [7]: 67%
inhibition in vivo at 50 mg/kg [20]: 65%

microsomal CLint [1]: < 3 µL/min/mg
logD [2]: 2.5
Compound: CCS(=O)(=O)c1ccc2c(c1)CN(C(=O)CCC#N)C2C(=O)Nc1ccc(C(O)(C(F)(F)F)C(F)(F)F)cc1 (stereo unspecified)

microsomal CLint [1]: < 3 µL/min/mg
Papp A→B [4]: 0.4 ×10⁻⁶ cm/s
Pm [5]: 8
logD [2]: 3.1
Compound: CCS(=O)(=O)c1ccc(C(CC(=O)NC)C(=O)Nc2ccc(C(O)(C(F)(F)F)C(F)(F)F)cc2)cc1 (stereo unspecified)

microsomal CLint [1]: 19 µL/min/mg
logD [2]: 3.2
Compound: COCC(=O)N1Cc2cc(S(=O)(=O)CC3CC3)ccc2C1C(=O)Nc1ccc(C(O)(C(F)(F)F)C(F)(F)F)cc1 (stereo unspecified)

microsomal CLint [1]: < 3 µL/min/mg
half-life [39]: 4.9 h
hepatocyte CLint [40]: < 1 µL/min/1e6 cells
Vdss [41]: 2 L/kg
CL/F [42]: 6.3 mL/min/kg
hepatocyte CLint [43]: < 1 µL/min/1e6 cells
bioavailability [44]: 40%
logD [2]: 2.4
Compound: CC(=O)N1Cc2cc(S(C)(=O)=O)ccc2C1C(=O)Nc1ccc(C(O)(C(F)(F)F)C(F)(F)F)cc1 (racemic)

microsomal CLint [1]: < 3 µL/min/mg
logD [2]: 2.7
Compound: CC(=O)NC(C(=O)Nc1ccc(C(O)(C(F)(F)F)C(F)(F)F)cc1)c1ccc(S(C)(=O)=O)cc1 (racemic)

microsomal CLint [1]: 22 µL/min/mg
Papp A→B [4]: 1.1 ×10⁻⁶ cm/s
Pm [5]: 14.2
IC50 [45]: 0.02 µM
logD [2]: 3.5
Compound: CCS(=O)(=O)c1ccc(C(NC(=O)CC2CC2)C(=O)Nc2ccc(C(O)(C(F)(F)F)C(F)(F)F)cc2)nc1 (stereo unspecified)
IC50 [3]: 34 µM
